The values below come from patent publication US7745390B2, “Antimicrobial peptides” (priority 2005, dated 2010).

pIC50: −log10 of the molar value. Square brackets hold non-standard residues; d marks the D form. Ends that are not written are not given here. Peptide text beside a SMILES is read from it. A value given as a limit tells only on which side of the number the result lay.

The test system of one assay is Salmonella. It is filed as cell-based, S. typhimurium. As to conditions: pH 7.2. On the procedure:
(§1) The experiments described above characterizing the activity of granulysin peptides G1-G18 relied on counting bacterial colonies on plates. This assay is quite labor intensive and would not allow evaluation of many different compounds on a number of different microbes. Therefore, we optimized an assay in which the entire procedure could be completed in a single microtiter well. Briefly, peptides are diluted in 10 mM phosphate buffer, pH 7.2 supplemented with 0.03% LB (J. Sambrook, D. W. Russell, Molecular Cloning: A Laboratory Manual (Cold Spring Harbor Laboratory Press, New York, ed. 3, 2001) pg. A2.2, Retrieved from http://openwetware.org/wiki/LB) and 25 μl is added to microtiter wells. Bacteria (25 μl) are added (˜5×10^6 colony forming units/ml) in the same buffer. After a 3-hour incubation at 37° C., 150 μl of LB is added and the plates are incubated overnight. The OD at 600 nm is read on an ELISA plate reader. The minimum inhibitory concentration (MIC) is the lowest concentration allowing no bacterial growth. The IC50 is the concentration of peptide that results in 50% growth compared to the medium.
(§2) We now describe additional peptides and their activity. The peptides have been designed, synthesized, and have been tested for lysis of E. coli and S. typhimurium (gram negative bacteria), B. cereus (gram positive bacterium). Results are shown in Table 2 along with the amino acid sequence of the peptide. Changes from the naturally occurring sequence are underlined. In general, the desired result is lysis of bacteria at low concentration (<1 μM).
(§3) In Table 2, Columns 2-7 are the MIC and IC50 (concentration required for 50% inhibition of growth) for each organism (E. coli, Salmonella, and B. cereus). The MIC (minimum inhibitory concentration) was determined as described above, in a multiwell plate assay. […] L-isomer amino acids are designated by capital letters while D-isomer amino acids are designated by lower case letters.

Another assay concerns E. coli DH5a. It is filed as cell-based. As to conditions: DH5a, pH 7.2. Here is the method:
as §1, §2, §3

A further assay relates to B. cereus. In kind it is cell-based. The settings on record: pH 7.2. Here is the method:
as §1, §2, §3

Take `CC[C@H](C)[C@H](NC(=O)[C@@H](NC(=O)[C@@H](CCCNC(=N)N)NC(=O)[C@H](CO)NC(=O)[C@H](CCC(N)=O)NC(=O)[C@@H](CCCNC(=N)N)NC(=O)[C@@H](CCCNC(=N)N)NC(=O)[C@H](CCSC)NC(=O)[C@H](Cc1ccccc1)NC(=O)[C@@H](CCCNC(=N)N)NC(=O)[C@H](CCCNC(=N)N)NC(=O)[C@H](C)NC(=O)[C@H](NC(=O)[C@H](CC(=O)O)NC(=O)[C@@H](N)CCCNC(=N)N)C(C)C)C(C)C)C(=O)N[C@@H](CO)C(=O)N[C@H](CCCNC(=N)N)C(=O)N[C@@H](CC(C)C)C(=O)N[C@H](C(=O)O)C(C)C` [Peptide G12.16, RDvARrFMrrQSrVISrLV] (H-RD[dV]AR[dR]FM[dR][dR]QS[dR]VIS[dR]LV-OH; N-terminus and C-terminus assumed): in the assay with Salmonella, the pIC50 was 6.00 and the “Salmonella MIC” value is 2.8 µM. Further, in the assay with E. coli DH5a, the “E. coli DH5a MIC” value was 1.39 µM and the pIC50 was 6.14. Besides, in the assay on B. cereus, the “B. cereus MIC” value stood at 5.6 µM and the pIC50 was 5.45.

For the molecule `CC[C@H](C)[C@H](NC(=O)[C@H](NC(=O)[C@H](CCCNC(=N)N)NC(=O)[C@H](CO)NC(=O)[C@H](CCC(N)=O)NC(=O)[C@@H](CCCNC(=N)N)NC(=O)[C@@H](CCCNC(=N)N)NC(=O)[C@H](CCSC)NC(=O)[C@H](Cc1ccccc1)NC(=O)[C@@H](CCCNC(=N)N)NC(=O)[C@H](CCCNC(=N)N)NC(=O)[C@@H](C)NC(=O)[C@@H](NC(=O)[C@H](CC(=O)O)NC(=O)[C@@H](N)CCCNC(=N)N)C(C)C)C(C)C)C(=O)N[C@@H](CO)C(=O)N[C@@H](CCCNC(=N)N)C(=O)N[C@H](CC(C)C)C(=O)N[C@H](C(=O)O)C(C)C` [Peptide G12.17, RDVaRrFMrrQSRvISRlV] (H-RDV[dA]R[dR]FM[dR][dR]QSR[dV]ISR[dL]V-OH; N-terminus and C-terminus assumed), in the assay on Salmonella, the pIC50 is 5.80 and the “Salmonella MIC” value came to 2.8 µM. Besides, in the assay on E. coli DH5a, the “E. coli DH5a MIC” value was 3.3 µM and the pIC50 is 6.05. Moreover, in the assay on B. cereus, the “B. cereus MIC” value stood at 2.8 µM and the pIC50 was 5.76.

In the case of `CC[C@@H](C)[C@@H](NC(=O)[C@@H](NC(=O)[C@H](CCCNC(=N)N)NC(=O)[C@@H](CO)NC(=O)[C@H](CCC(N)=O)NC(=O)[C@@H](CCCNC(=N)N)NC(=O)[C@@H](CCCNC(=N)N)NC(=O)[C@H](CCSC)NC(=O)[C@H](Cc1ccccc1)NC(=O)[C@H](CCCNC(=N)N)NC(=O)[C@H](CCCNC(=N)N)NC(=O)[C@@H](C)NC(=O)[C@@H](NC(=O)[C@H](CC(=O)O)NC(=O)[C@@H](N)CCCNC(=N)N)C(C)C)C(C)C)C(=O)N[C@@H](CO)C(=O)N[C@@H](CCCNC(=N)N)C(=O)N[C@@H](CC(C)C)C(=O)N[C@H](C(=O)O)C(C)C` [Peptide G12.18, RDVaRRFMrrQsRViSRLV] (H-RDV[dA]RRFM[dR][dR]Q[dS]RV[dI]SRLV-OH; N-terminus and C-terminus assumed), in the assay with Salmonella, the pIC50 was 5.79 and the “Salmonella MIC” value was found to be 2.8 µM. Besides, in the assay with E. coli DH5a, the “E. coli DH5a MIC” value came out at 2.9 µM and the pIC50 was 6.00. In the assay with B. cereus, the “B. cereus MIC” value was 5.6 µM and the pIC50 was 5.45.

`CSCC[C@@H](NC(=O)[C@H]1CCCN1C(=O)[C@@H](CCCCN)NC(=O)[C@@H](CCCCN)NC(=O)[C@@H](CO)NC(=O)[C@H](NC(=O)[C@@H](CCCCN)NC(=O)[C@@H](CCCCN)NC(=O)[C@@H](CCCCN)NC(=O)[C@@H](CCCCN)NC(=O)[C@@H](CCCCN)NC(=O)[C@@H](CCCCN)NC(=O)[C@H](N)CCCCN)C(C)C)C(=O)N[C@H](CCCCN)C(=O)N[C@H](CCCCN)C(=O)N[C@H](Cc1ccc(O)cc1)C(=O)N[C@H](CCCCN)C(=O)N[C@H](CO)C(=O)N[C@H](CCCCN)C(=O)N[C@H](CCCCN)C(=O)N1CCC[C@@H]1C(=O)N[C@H](CCCCN)C(=O)N[C@H](CCCCN)C(=O)N[C@H](CC(C)C)C(=O)N[C@@H](C(=O)O)C(C)C` [Peptide G12.29, kkkkkkkvskkpmkkykskkpkklv] (H-[dK][dK][dK][dK][dK][dK][dK][dV][dS][dK][dK][dP][dM][dK][dK][dY][dK][dS][dK][dK][dP][dK][dK][dL][dV]-OH; N-terminus and C-terminus assumed): in the assay with Salmonella, the negative-log IC50 (pIC50) is 6.55 and the “Salmonella MIC” value worked out at 1.15 µM. In addition, in the assay with E. coli DH5a, the “E. coli DH5a MIC” value came to 0.15 µM and the negative logarithm of the IC50 (pIC50) is 7.00. In the assay with B. cereus, the “B. cereus MIC” value was 0.35 µM and the pIC50 is 6.68.

With `CC(C)[C@H](NC(=O)[C@H](CO)NC(=O)[C@H](CCCNC(=N)N)NC(=O)[C@@H](N)CCC(N)=O)C(=O)N[C@@H](CO)C(=O)N[C@@H](CCCNC(=N)N)C(=O)N[C@H](C)C(=O)N[C@H](C)C(=O)N[C@H](C(=O)N[C@@H](CCCNC(=N)N)C(=O)N[C@H](C(=O)N[C@@H](CO)C(=O)N[C@@H](CCCNC(=N)N)C(=O)N[C@H](C(=O)NCC(=O)N[C@@H](CCCNC(=N)N)C(=O)N[C@@H](CO)C(=O)N[C@@H](CCCNC(=N)N)C(=O)N[C@@H](Cc1c[nH]c2ccccc12)C(=O)O)[C@@H](C)O)C(C)C)[C@@H](C)O` [Peptide G13.7, QRSVSRaaTRVSRTGRSRW] (H-QRSVSR[dA][dA]TRVSRTGRSRW-OH; N-terminus and C-terminus assumed), in the assay with Salmonella, the pIC50 is below 5.00 and the “Salmonella MIC” value was above 10 µM. Besides, in the assay with E. coli DH5a, the “E. coli DH5a MIC” value amounted to 5.7 µM and the pIC50 was 5.55. In the assay with B. cereus, the “B. cereus MIC” value was above 10 µM and the pIC50 is 5.11.

In the case of `CSCC[C@H](NC(=O)[C@H](Cc1ccccc1)NC(=O)[C@H](CCCNC(=N)N)NC(=O)[C@H](CCCNC(=N)N)NC(=O)[C@H](CO)NC(=O)[C@@H](NC(=O)[C@@H](CC(=O)O)NC(=O)[C@@H](CCCNC(=N)N)NC(=O)[C@H](Cc1c[nH]c2ccccc12)NC(=O)[C@H](CCCNC(=N)N)NC(=O)[C@H](CO)NC(=O)[C@H](CCCNC(=N)N)NC(=O)CN)C(C)C)C(=O)N[C@@H](CCCNC(=N)N)C(=O)N[C@@H](CCCNC(=N)N)C(=O)O` [Peptide G14.10, GRSRWrdVSRRFMRR] (H-GRSRW[dR][dD]VSRRFMRR-OH; N-terminus and C-terminus assumed), in the assay on Salmonella, the pIC50 is 6.05 and the “Salmonella MIC” value stood at 1.4 µM. Also, in the assay on E. coli DH5a, the “E. coli DH5a MIC” value came to 1.25 µM and the pIC50 is 6.35. In addition, in the assay on B. cereus, the “B. cereus MIC” value was 2.8 µM and the pIC50 was 5.76.

Turning to “FDTPRRVSRRFMRRLGH [Peptide G11.43, FDTPRRVSRRFMRRLGH]”, in the assay with Salmonella, the pIC50 was 5.52 and the “Salmonella MIC” value was above 10 µM. Besides, in the assay on E. coli DH5a, the “E. coli DH5a MIC” value is 0.75 µM and the pIC50 was 6.38. In the assay on B. cereus, the “B. cereus MIC” value was 0.75 µM and the pIC50 is 6.68.

In the case of “GRARWRDVARRFMRR [Peptide G14.9, GRARWRDVARRFMRR]”, in the assay on Salmonella, the pIC50 was 6.36 and the “Salmonella MIC” value came to 0.65 µM. Further, in the assay with E. coli DH5a, the “E. coli DH5a MIC” value was determined as 1.38 µM and the pIC50 was 6.09. Besides, in the assay with B. cereus, the “B. cereus MIC” value amounted to 1.37 µM and the pIC50 was 6.07.

In the case of “GRSGWRDVSRNFRRG [Peptide G14.12, GRSGWRDVSRNFRRG]”, in the assay with Salmonella, the pIC50 was below 5.00 and the “Salmonella MIC” value is above 10 µM. In addition, in the assay with E. coli DH5a, the “E. coli DH5a MIC” value is above 10 µM and the pIC50 was 5.17. In the assay on B. cereus, the “B. cereus MIC” value is above 10 µM and the negative logarithm of the IC50 (pIC50) is below 5.00.

For “GRSLWRDVSRNFMRR [Peptide G14.13, GRSLWRDVSRNFMRR]”, in the assay with Salmonella, the pIC50 was 5.12 and the “Salmonella MIC” value was above 10 µM. For the same molecule, in the assay with E. coli DH5a, the “E. coli DH5a MIC” value worked out at 5.6 µM and the pIC50 is 5.73. In addition, in the assay on B. cereus, the “B. cereus MIC” value is above 10 µM and the pIC50 is below 5.00.

On to “GRSRWRDVSRNFMRR [Peptide G14.1, GRSRWRDVSRNFMRR]”, for which, in the assay on Salmonella, the pIC50 was 5.76 and the “Salmonella MIC” value is 2.8 µM. In the assay on E. coli DH5a, the “E. coli DH5a MIC” value came to 1.37 µM and the pIC50 is 6.05. Moreover, in the assay on B. cereus, the “B. cereus MIC” value was above 10 µM and the pIC50 was 5.12.

For the molecule “GRSRWRDVSRRFMRR [Peptide G14.2, GRSRWRDVSRRFMRR]”, in the assay with Salmonella, the pIC50 is 6.07 and the “Salmonella MIC” value was 1.4 µM. In the assay with E. coli DH5a, the “E. coli DH5a MIC” value came to 1.45 µM and the pIC50 was 6.07. Also, in the assay on B. cereus, the “B. cereus MIC” value amounted to 2.8 µM and the pIC50 was 5.76.

Turning to “GSRRWRDVSRRFMRR [Peptide G14.14, GSRRWRDVSRRFMRR]”, in the assay on Salmonella, the pIC50 is 6.68 and the “Salmonella MIC” value was determined as 0.7 µM. Also, in the assay on E. coli DH5a, the “E. coli DH5a MIC” value was 0.17 µM and the pIC50 was 6.96. In addition, in the assay with B. cereus, the “B. cereus MIC” value was 0.35 µM and the pIC50 was 6.68.

For the molecule KKVSKKFMKK [Peptide G11.8, KKVSKKFMKK], in the assay with Salmonella, the pIC50 is below 5.00 and the “Salmonella MIC” value is above 10 µM. In addition, in the assay with E. coli DH5a, the “E. coli DH5a MIC” value was above 10 µM and the negative logarithm of the IC50 (pIC50) was below 5.00. In addition, in the assay on B. cereus, the “B. cereus MIC” value is above 10 µM and the pIC50 is below 5.00.

A word on the pIC50: it is the negative decadic logarithm of the IC50, by convention in mol/L. Read a low pIC50 as a high IC50.
